Measured values published in the NIST ThermoML archive (doi:10.1021/je800529x).
Numbers after ± are expanded uncertainties.

Conditions: Liquid, Drop weight

O=C=O [carbon dioxide] + O
interfacial tension [mN/m]
Conditions | 2000 kPa | 4000 kPa | 6000 kPa | 8000 kPa | 12000 kPa | 17400 kPa | 27000 kPa
293.15 K | 62.4 ± 1.7 | 43.5 ± 1.3 | 34.9 ± 1 | 29.1 ± 0.8 | 25.1 ± 0.7 | 23.2 ± 0.8 | 18.9 ± 0.7
298.15 K | 62.1 ± 1.7 | 45.1 ± 2.5 | 36.2 ± 1.3 | 30.6 ± 1.6 | 26.5 ± 1 | 24.9 ± 0.8 | 21.1 ± 0.6
299.15 K | 61.8 ± 1.7 | 45.6 ± 1.3 | 36.5 ± 1.1 | 30.8 ± 1.1 | 26.9 ± 0.8 | 25 ± 1 | 21.3 ± 0.7
301.15 K | 62 ± 2 | 46.1 ± 1.4 | 37.6 ± 1.3 | 32.8 ± 1.1 | 27.4 ± 0.8 | 25.8 ± 0.8 | 22.3 ± 1.3
303.15 K | 62.1 ± 1.7 | 48.2 ± 1.5 | 39.7 ± 1.3 | 33.5 ± 1.1 | 27.7 ± 0.8 | 26.4 ± 0.8 | 25.7 ± 1.2
305.15 K | 62.5 ± 1.7 | 49.1 ± 2.8 | 40.7 ± 2.3 | 34.8 ± 1.8 | 28.6 ± 2.4 | 27.4 ± 2.6 | 26.1 ± 2.5
307.15 K | 61.5 ± 1.7 | 38.2 ± 3.3 | 31.5 ± 3.4 | 27.3 ± 2.9 | 18.5 ± 3.5 | 16.4 ± 4 | 16.1 ± 3.5
308.15 K | 62.1 ± 2.4 | 39.3 ± 1.3 | 31.9 ± 0.9 | 27.4 ± 0.8 | 18.6 ± 0.6 | 16.6 ± 0.7 | 16.3 ± 0.5
309.15 K | 64.9 ± 3.3 | 39.6 ± 6.3 | 32.1 ± 1.5 | 27.5 ± 0.8 | 19 ± 3 | 17.3 ± 1.3 | 16.6 ± 0.6
314.15 K | 65.2 ± 1.8 | 42.9 ± 1.3 | 33.2 ± 1 | 28.5 ± 0.9 | 19.9 ± 0.7 | 17.8 ± 0.7 | 16.9 ± 0.7
333.15 K | 66.6 ± 1.8 | 52.9 ± 1.5 | 43.1 ± 1.2 | 37.9 ± 1.1 | 31.2 ± 1 | 29.4 ± 0.9 | 28.8 ± 0.9
348.15 K | 66.9 ± 1.8 | 53.2 ± 1.5 | 43.6 ± 1.2 | 38.6 ± 1.1 | 34.5 ± 1 | 31.5 ± 0.9 | 29.9 ± 0.8
373.15 K | 67.7 ± 1.9 | 57.9 ± 1.6 | 47.5 ± 1.3 | 41.7 ± 1.2 | 37.6 ± 1.1 | 32.9 ± 0.9 | 32.1 ± 0.9
398.15 K | 68.1 ± 1.9 | 58.9 ± 1.6 | 50.5 ± 1.4 | 44.6 ± 1.2 | 39.6 ± 1.1 | 36.1 ± 1 | 33.2 ± 0.9
